Test results taken from patent publication US11767310B2, “Nicotinamide RIPK1 inhibitors” (AbbVie Inc., priority 2021, dated 2023).
Read-outs that look alike come from different tables or passages of the source.

Tests used:
Assay in all cases: Kinase binding screen
Conditions in all cases: read-out: Percent Control at 100 nM Compound Concentration
AURKB = AURKB (Homo sapiens (Human), UniProt Q96GD4)
PKN1 = PKN1 (Homo sapiens (Human), UniProt Q16512)
AURKA = AURKA (Homo sapiens (Human), UniProt O14965)
Chain of AURKA (O14965 whole entry): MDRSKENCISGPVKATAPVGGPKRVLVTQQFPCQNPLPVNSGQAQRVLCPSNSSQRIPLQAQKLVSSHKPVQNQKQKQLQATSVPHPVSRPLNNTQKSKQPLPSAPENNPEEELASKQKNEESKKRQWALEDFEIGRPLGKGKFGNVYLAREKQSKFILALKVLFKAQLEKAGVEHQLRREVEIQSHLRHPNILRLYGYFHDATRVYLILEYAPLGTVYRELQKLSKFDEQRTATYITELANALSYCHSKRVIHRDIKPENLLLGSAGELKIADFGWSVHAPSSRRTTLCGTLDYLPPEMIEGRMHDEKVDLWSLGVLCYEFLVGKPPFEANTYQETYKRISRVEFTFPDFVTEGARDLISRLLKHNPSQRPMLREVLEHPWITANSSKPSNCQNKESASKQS

BMPR1B = BMPR1B (Homo sapiens (Human), UniProt O00238)
[1] = biological target: TYK2(JH1domain-catalytic) (Homo sapiens (Human), UniProt P29597)
Chain of TYK2(JH1domain-catalytic) (P29597 897-1176): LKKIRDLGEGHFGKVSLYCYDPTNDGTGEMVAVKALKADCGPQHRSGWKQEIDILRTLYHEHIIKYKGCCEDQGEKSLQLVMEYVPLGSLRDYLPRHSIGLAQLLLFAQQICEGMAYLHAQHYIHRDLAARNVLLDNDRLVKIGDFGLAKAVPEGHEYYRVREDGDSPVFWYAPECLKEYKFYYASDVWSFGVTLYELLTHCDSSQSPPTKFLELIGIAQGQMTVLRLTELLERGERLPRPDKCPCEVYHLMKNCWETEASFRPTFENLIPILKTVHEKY

PAK4 = PAK4 (Homo sapiens (Human), UniProt O96013)
p38-alpha = p38-alpha (Homo sapiens (Human), UniProt Q16539)
Chain of p38-alpha (Q16539 whole entry): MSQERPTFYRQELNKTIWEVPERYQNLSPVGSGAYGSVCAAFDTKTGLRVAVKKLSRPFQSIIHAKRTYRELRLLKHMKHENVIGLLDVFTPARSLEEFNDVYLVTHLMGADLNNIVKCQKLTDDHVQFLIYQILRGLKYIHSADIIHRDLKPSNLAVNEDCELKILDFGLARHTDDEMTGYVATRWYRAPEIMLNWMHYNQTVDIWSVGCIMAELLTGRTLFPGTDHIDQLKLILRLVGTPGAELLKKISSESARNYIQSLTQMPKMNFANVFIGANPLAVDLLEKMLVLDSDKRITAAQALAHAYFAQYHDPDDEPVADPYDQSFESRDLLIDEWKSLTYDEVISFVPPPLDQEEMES

ABL1-nonphosphorylated = ABL1-nonphosphorylated (Homo sapiens (Human), UniProt P00519)
PFPK5(P.falciparum) = PFPK5(P.falciparum) (Plasmodium falciparum (isolate 3D7), UniProt P61075)
Excerpt: (§1) The screening method uses an immobilized ligand on a solid support, a DNA-tagged kinase, and a test compound. Test compounds that bind the kinase active site and directly (sterically) or indirectly (allosterically) prevent kinase binding to an immobilized ligand on a solid support will reduce the amount of kinase captured on the solid support. […] Screening “hits” are identified by measuring the amount of kinase captured in test compound versus control samples by using a quantitative, precise and ultra-sensitive qPCR method that detects the DNA label associated with the kinase. In a similar manner, dissociation constants (Kd) for test compound-kinase interactions are calculated by measuring the amount of kinase captured on the solid support as a function of the test compound concentration.
(§2) For most assays, kinase-tagged T7 phage strains were grown in parallel in 24-well blocks in an E. coli host derived from the BL21 strain. E. coli were grown to log-phase and infected with T7 phage from a frozen stock (multiplicity of infection=0.4) and incubated with shaking at 32° C. until lysis (90-150 minutes). The lysates were centrifuged (6,000×g) and filtered ([…]) to remove cell debris. The remaining kinases were produced in HEK-293 cells and subsequently tagged with DNA for qPCR detection. Streptavidin-coated magnetic beads were treated with biotinylated small molecule ligands for 30 minutes at room temperature to generate affinity resins for kinase assays. The liganded beads were blocked with excess biotin and washed with blocking buffer (SeaBlock (Pierce), 1% BSA, 0.05% Tween 20, 1 mM DTT) to remove unbound ligand and to reduce non-specific phage binding. […] Test compounds were prepared as 40× stocks in 100% DMSO and directly diluted into the assay. All reactions were performed in polypropylene 384-well plates in a final volume of 0.02 mL. […] The kinase concentration in the eluates was measured by qPCR.
(§3) The compounds were screened at 100 nM concentration, and results for the binding interactions are shown below in Table D as percent control, where lower numbers indicate stronger hits. The calculation for percent control is shown below. The negative control was DMSO (100% control), and a control compound was used as positive control (0% control).

PFCDPK1(P.falciparum) = PFCDPK1(P.falciparum) (Plasmodium falciparum (isolate 3D7), UniProt P62344)
Excerpt: as §1, §2, §3

CDC2L5 = CDC2L5 (Homo sapiens (Human), UniProt Q14004)
Chain of CDC2L5 (Q14004 whole entry, looked up): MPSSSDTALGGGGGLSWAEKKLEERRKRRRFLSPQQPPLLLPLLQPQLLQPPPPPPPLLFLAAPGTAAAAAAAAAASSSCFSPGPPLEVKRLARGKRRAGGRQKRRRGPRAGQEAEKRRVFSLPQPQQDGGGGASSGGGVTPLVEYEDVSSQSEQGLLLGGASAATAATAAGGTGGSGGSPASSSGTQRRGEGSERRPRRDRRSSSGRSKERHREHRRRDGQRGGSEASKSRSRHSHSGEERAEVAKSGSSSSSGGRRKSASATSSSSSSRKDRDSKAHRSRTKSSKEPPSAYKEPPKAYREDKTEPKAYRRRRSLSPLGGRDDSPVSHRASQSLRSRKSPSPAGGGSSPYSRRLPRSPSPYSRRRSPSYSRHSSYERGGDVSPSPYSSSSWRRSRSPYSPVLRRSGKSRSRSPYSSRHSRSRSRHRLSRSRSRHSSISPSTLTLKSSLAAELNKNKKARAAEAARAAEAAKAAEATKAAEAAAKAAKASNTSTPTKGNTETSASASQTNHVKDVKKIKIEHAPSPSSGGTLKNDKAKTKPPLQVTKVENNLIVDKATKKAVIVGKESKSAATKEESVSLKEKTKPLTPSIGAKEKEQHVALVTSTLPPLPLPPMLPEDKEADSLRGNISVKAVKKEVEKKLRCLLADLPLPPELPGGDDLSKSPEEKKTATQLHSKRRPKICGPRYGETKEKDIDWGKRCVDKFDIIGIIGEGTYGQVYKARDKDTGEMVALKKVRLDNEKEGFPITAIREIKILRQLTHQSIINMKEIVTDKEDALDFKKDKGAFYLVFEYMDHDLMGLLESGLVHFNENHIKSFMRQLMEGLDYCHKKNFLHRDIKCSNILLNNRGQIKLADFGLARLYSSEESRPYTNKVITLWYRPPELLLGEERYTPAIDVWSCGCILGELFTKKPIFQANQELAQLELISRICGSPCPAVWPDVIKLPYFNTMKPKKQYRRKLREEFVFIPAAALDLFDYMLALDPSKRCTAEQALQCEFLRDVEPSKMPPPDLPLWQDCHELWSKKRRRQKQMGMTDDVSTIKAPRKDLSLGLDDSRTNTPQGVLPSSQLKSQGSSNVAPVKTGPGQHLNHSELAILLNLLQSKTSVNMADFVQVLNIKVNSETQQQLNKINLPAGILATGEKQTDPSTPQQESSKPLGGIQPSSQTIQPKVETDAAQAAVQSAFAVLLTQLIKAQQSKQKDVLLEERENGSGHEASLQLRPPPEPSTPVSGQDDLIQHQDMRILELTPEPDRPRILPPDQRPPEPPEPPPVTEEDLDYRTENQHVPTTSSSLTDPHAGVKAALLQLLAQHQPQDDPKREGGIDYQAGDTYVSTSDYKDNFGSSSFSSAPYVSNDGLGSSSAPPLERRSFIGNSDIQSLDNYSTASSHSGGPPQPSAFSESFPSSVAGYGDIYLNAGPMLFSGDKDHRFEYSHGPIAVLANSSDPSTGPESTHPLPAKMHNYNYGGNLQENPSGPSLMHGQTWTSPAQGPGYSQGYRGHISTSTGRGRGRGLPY
Excerpt: as §1, §2, §3

PRP4 = PRP4 (Homo sapiens (Human), UniProt Q13523)
Excerpt: as §1, §2, §3

[2] = biological target: ABL1(T315I)-nonphosphorylated (Homo sapiens (Human), UniProt P00519, T315I)
CHEK2 = CHEK2 (Homo sapiens (Human), UniProt O96017)
NEK2 = NEK2 (Homo sapiens (Human), UniProt P51955)
RIPK2 = RIPK2 (Homo sapiens (Human), UniProt O43353)
EGFR(L858R) = EGFR(L858R) (Homo sapiens (Human), UniProt P00533, L858R)
Chain of EGFR(L858R) (P00533 25-1210 L858R): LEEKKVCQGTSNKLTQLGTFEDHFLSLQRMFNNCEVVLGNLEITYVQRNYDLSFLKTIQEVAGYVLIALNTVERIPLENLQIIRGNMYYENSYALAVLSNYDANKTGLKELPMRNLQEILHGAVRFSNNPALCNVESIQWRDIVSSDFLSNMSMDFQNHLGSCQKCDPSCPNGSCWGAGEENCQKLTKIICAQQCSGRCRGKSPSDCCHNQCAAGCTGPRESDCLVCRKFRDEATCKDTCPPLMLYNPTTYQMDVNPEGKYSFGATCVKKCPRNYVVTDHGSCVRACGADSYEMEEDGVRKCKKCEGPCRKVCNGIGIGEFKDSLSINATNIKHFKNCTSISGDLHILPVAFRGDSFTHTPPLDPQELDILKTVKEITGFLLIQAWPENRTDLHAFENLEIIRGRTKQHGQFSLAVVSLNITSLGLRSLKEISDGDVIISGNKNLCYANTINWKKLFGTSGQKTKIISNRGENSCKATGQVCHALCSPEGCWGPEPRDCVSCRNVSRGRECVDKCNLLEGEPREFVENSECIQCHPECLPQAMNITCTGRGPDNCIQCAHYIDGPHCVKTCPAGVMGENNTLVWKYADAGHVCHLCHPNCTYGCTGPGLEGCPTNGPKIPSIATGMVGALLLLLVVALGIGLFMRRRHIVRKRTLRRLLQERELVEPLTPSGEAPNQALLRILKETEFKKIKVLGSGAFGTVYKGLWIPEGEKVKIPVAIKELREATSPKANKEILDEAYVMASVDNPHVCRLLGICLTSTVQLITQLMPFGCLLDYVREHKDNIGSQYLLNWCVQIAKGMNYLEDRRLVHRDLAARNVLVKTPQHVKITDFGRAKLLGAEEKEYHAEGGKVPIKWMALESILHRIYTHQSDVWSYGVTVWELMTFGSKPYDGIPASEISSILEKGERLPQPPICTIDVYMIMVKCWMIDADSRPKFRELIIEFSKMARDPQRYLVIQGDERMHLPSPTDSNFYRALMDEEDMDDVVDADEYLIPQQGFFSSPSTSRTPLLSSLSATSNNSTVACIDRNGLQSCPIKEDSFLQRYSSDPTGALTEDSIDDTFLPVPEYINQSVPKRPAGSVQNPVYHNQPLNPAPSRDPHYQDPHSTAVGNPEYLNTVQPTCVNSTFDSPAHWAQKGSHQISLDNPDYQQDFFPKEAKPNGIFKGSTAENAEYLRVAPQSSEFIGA

FER = FER (Homo sapiens (Human), UniProt P16591)
ARK5 = ARK5 (Homo sapiens (Human), UniProt O60285)
CDK7 = CDK7 (Homo sapiens (Human), UniProt P50613)
CSNK1E = CSNK1E (Homo sapiens (Human), UniProt P49674)
CDKL3 = CDKL3 (Homo sapiens (Human), UniProt Q8IVW4)

Chain of AURKB (Q96GD4 whole entry): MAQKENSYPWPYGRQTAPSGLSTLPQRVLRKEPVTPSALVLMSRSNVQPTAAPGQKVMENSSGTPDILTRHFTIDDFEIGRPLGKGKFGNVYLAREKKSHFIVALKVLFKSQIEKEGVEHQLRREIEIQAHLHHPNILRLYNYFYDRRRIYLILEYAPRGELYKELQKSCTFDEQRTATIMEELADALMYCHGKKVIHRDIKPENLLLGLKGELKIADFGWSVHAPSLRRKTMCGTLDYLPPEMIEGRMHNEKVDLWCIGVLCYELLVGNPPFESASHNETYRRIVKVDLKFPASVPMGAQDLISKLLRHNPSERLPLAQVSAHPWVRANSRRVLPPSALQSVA
Chain of PKN1 (Q16512 whole entry): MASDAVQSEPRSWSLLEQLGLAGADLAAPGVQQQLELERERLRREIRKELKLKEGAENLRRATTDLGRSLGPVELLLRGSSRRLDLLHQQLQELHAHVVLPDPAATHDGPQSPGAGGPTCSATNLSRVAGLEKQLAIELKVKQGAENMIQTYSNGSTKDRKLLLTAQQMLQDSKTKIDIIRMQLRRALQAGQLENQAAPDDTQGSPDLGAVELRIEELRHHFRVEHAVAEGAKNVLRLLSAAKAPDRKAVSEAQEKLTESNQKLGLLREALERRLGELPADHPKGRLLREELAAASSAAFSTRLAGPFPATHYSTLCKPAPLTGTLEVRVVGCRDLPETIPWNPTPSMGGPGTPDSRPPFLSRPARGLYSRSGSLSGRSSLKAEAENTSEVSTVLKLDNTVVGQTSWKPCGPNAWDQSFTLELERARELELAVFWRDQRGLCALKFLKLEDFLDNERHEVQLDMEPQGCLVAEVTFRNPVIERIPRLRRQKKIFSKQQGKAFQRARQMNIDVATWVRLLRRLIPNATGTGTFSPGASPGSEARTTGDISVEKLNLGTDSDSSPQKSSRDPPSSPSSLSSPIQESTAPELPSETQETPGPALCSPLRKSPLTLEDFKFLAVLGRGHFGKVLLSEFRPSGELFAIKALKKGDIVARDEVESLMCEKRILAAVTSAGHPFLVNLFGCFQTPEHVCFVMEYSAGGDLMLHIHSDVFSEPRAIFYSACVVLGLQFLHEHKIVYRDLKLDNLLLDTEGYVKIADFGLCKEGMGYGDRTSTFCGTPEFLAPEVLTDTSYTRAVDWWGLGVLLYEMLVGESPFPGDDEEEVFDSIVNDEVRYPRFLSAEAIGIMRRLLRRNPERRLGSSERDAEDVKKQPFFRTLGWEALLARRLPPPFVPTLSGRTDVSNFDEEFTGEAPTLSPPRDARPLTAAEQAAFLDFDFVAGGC

## CN(C[C@@H](O)Cc1ccccc1)C(=O)c1cncc(C#Cc2cnn(C(F)F)c2)c1 [Example 2, (S)-5-((1-(difluoromethyl)-1H-pyrazol-4-yl)ethynyl)-N-(2-hydroxy-3-phenylpropyl)-N-methylnicotinamide]
AURKB; AURKB
  remaining activity at 0.1 µM: 100%
PKN1; PKN1
  remaining activity at 0.1 µM: 91%
AURKA; AURKA
  remaining activity at 0.1 µM: 100%
BMPR1B; BMPR1B
  remaining activity at 0.1 µM: 98%
[1]; TYK2(JH1domain-catalytic)
  remaining activity at 0.1 µM: 100%
PAK4; PAK4
  remaining activity at 0.1 µM: 98%
p38-alpha; p38-alpha
  remaining activity at 0.1 µM: 100%
ABL1-nonphosphorylated; ABL1-nonphosphorylated
  remaining activity at 0.1 µM: 72%
PFPK5(P.falciparum)
  remaining activity at 0.1 µM: 90%
PFCDPK1(P.falciparum)
  remaining activity at 0.1 µM: 95%
CDC2L5
  remaining activity at 0.1 µM: 100%
PRP4
  remaining activity at 0.1 µM: 89%
[2]; ABL1(T315I)-nonphosphorylated
  remaining activity at 0.1 µM: 100%
CHEK2; CHEK2
  remaining activity at 0.1 µM: 100%
NEK2; NEK2
  remaining activity at 0.1 µM: 100%
RIPK2; RIPK2
  remaining activity at 0.1 µM: 100%
EGFR(L858R); EGFR(L858R)
  remaining activity at 0.1 µM: 100%
FER; FER
  remaining activity at 0.1 µM: 100%
ARK5; ARK5
  remaining activity at 0.1 µM: 100%
CDK7; CDK7
  remaining activity at 0.1 µM: 100%
CSNK1E; CSNK1E
  remaining activity at 0.1 µM: 67%
CDKL3; CDKL3
  remaining activity at 0.1 µM: 100%

## CN(C[C@H](Cc1ccccc1)OP(=O)(O)O)C(=O)c1cncc(C#Cc2cnn(C(F)F)c2)c1 [Example 19, (S)-1-(5-((1-(difluoromethyl)-1H-pyrazol-4-yl)ethynyl)-N-methylnicotinamido)-3-phenylpropan-2-yl dihydrogen phosphate]
AURKB
  remaining activity at 0.1 µM: 90%
PKN1
  remaining activity at 0.1 µM: 100%
AURKA
  remaining activity at 0.1 µM: 100%
BMPR1B
  remaining activity at 0.1 µM: 99%
[1]
  remaining activity at 0.1 µM: 100%
PAK4
  remaining activity at 0.1 µM: 98%
p38-alpha
  remaining activity at 0.1 µM: 100%
ABL1-nonphosphorylated
  remaining activity at 0.1 µM: 96%
PFPK5(P.falciparum)
  remaining activity at 0.1 µM: 100%
PFCDPK1(P.falciparum)
  remaining activity at 0.1 µM: 96%
CDC2L5
  remaining activity at 0.1 µM: 100%
PRP4
  remaining activity at 0.1 µM: 82%
[2]
  remaining activity at 0.1 µM: 97%
CHEK2
  remaining activity at 0.1 µM: 100%
NEK2
  remaining activity at 0.1 µM: 100%
RIPK2
  remaining activity at 0.1 µM: 100%
EGFR(L858R)
  remaining activity at 0.1 µM: 94%
FER
  remaining activity at 0.1 µM: 96%
ARK5
  remaining activity at 0.1 µM: 100%
CDK7
  remaining activity at 0.1 µM: 100%
CSNK1E
  remaining activity at 0.1 µM: 74%
CDKL3
  remaining activity at 0.1 µM: 97%
